“And” between values parts separate entries of the source, which are not always exact repeats. Equal values may be shown once. Read-outs that look alike come from different tables or passages of the source.
How the values were obtained:
CDK12–cyclin K and DDB1 = molecular target: T1, CDK12–cyclin K and DDB1 (Homo sapiens, UniProt Q16531+Q9NYV4, K965R); assay: TR-FRET ternary complex formation assay (compound titration); format: binding
T1 construct: His6–CDK12 (a.a. 713–1,052); full-length or beta-propeller B domain deletion (ΔBPB: a.a. 396–705 deleted) constructs of His6–DDB1ΔBPB, StrepII–Avi–DDB1, or His6–Spy–DDB1; made in house; host or cells: Trichoplusia ni High Five insect cells (baculovirus)
In short: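 TR-FRET ratio 520/490 nm; 70 μs delay before read to suppress background.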

HEK293T cells = assay: Drug sensitivity assay (CellTiter-Glo viability) with or without MLN4924 pretreatment; format: cell-based, human; conditions: for EC50: Homo sapiens, HEK-293T
In short: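 Luminescent ATP read-out (CellTiter-Glo) after 3 days of drug exposure, normalised to DMSO controls. Cells were HEK293T–Cas9, pretreated with 100 nM MLN4924 or DMSO for 2 h before drug dispensing.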

CDK2–cyclin A = molecular target: T2, CDK2–cyclin A (Homo sapiens, UniProt P24941); assay: Lanthascreen kinase binding assay, CDK2; conditions: for Lanthascreen signal, sheet CDK2: raw replicates, experiment r36-r46
T2 construct: purchased Thermo Fisher
Procedure: (§1) Lanthascreen experiments were performed using commercially available reagents (Thermo Fisher) and according to the manufacturer’s instructions.

CDK9–cyclin T = molecular target: T3, CDK9–cyclin T (Homo sapiens, UniProt P50750); assay: Lanthascreen kinase binding assay, CDK9; conditions: for Lanthascreen TR-FRET signal (raw ratio), sheet CDK9: third titration set (r25), duplicates
T3 construct: purchased Thermo Fisher
Procedure: as §1

[1] = system: cyclin K–eGFP degradation reporter; assay: Cyclin K reporter stability analysis (dual-color cyclin K–eGFP reporter); format: cell-based, human; conditions: source data sheet correlations; read-out: DC50
In short: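 Cells (HEK293T–Cas9, reporter-expressing) at 1 × 10^6 ml^−1; 5 h compound or DMSO; flow cytometry; gMFI eGFP ÷ mCherry on round mCherry-positive events; normalized to 3 DMSO controls.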

CDK12–cyclin K = CDK12–cyclin K (Homo sapiens, UniProt Q9NYV4); assay: Lanthascreen kinase binding assay, CDK12; conditions: for Lanthascreen raw signal, sheet CDK12: series r37, duplicates
Procedure: as §1

T3 sequence (P50750 whole entry): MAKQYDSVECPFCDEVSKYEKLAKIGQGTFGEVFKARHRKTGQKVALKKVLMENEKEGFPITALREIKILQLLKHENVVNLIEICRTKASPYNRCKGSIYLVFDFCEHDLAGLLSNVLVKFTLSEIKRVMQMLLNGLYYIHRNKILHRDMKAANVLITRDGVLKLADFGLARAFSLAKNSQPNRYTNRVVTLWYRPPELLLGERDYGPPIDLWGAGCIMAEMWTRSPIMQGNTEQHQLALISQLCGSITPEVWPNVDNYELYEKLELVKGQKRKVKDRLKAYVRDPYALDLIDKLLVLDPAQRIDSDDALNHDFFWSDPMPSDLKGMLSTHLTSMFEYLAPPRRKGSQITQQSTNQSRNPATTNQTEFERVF
T3 sequence (O60563 whole entry partner): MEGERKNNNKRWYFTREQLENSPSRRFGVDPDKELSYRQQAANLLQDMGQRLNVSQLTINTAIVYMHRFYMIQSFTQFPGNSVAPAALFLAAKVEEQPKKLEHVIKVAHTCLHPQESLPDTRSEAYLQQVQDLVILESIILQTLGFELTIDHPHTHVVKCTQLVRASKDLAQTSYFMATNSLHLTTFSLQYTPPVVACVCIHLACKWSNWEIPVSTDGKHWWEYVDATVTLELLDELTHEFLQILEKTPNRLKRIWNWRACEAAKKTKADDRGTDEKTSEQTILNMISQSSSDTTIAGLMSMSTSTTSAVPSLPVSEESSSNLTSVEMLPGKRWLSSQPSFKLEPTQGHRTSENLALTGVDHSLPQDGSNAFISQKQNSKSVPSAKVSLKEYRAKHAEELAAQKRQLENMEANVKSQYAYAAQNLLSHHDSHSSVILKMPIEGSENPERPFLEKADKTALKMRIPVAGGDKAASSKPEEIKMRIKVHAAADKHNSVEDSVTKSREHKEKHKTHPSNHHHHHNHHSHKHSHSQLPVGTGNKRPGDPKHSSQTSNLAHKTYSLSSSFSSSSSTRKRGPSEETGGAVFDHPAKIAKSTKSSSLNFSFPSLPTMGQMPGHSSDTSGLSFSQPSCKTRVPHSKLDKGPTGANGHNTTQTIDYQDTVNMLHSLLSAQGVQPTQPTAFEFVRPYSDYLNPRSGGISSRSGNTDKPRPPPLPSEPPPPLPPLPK
T1 sequence (Q9NYV4 713-1052 K965R): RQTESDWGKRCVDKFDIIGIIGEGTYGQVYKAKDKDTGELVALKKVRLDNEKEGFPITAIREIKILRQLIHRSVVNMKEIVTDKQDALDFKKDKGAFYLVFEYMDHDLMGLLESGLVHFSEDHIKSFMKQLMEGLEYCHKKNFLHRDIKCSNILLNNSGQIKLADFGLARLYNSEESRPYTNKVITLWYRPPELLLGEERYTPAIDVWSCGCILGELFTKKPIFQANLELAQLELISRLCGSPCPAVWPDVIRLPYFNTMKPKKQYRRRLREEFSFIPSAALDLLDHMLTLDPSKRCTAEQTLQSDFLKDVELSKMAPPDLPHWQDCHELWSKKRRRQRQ
T1 sequence (O75909 1-267 partner): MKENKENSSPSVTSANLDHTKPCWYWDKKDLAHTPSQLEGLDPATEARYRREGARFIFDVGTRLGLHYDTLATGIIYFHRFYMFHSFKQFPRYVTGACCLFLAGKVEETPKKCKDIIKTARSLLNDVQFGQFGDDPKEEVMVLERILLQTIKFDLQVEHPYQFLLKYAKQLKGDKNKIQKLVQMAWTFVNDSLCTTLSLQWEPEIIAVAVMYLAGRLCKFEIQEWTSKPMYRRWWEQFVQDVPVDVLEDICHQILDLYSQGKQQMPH
T1 sequence (Q16531 whole entry): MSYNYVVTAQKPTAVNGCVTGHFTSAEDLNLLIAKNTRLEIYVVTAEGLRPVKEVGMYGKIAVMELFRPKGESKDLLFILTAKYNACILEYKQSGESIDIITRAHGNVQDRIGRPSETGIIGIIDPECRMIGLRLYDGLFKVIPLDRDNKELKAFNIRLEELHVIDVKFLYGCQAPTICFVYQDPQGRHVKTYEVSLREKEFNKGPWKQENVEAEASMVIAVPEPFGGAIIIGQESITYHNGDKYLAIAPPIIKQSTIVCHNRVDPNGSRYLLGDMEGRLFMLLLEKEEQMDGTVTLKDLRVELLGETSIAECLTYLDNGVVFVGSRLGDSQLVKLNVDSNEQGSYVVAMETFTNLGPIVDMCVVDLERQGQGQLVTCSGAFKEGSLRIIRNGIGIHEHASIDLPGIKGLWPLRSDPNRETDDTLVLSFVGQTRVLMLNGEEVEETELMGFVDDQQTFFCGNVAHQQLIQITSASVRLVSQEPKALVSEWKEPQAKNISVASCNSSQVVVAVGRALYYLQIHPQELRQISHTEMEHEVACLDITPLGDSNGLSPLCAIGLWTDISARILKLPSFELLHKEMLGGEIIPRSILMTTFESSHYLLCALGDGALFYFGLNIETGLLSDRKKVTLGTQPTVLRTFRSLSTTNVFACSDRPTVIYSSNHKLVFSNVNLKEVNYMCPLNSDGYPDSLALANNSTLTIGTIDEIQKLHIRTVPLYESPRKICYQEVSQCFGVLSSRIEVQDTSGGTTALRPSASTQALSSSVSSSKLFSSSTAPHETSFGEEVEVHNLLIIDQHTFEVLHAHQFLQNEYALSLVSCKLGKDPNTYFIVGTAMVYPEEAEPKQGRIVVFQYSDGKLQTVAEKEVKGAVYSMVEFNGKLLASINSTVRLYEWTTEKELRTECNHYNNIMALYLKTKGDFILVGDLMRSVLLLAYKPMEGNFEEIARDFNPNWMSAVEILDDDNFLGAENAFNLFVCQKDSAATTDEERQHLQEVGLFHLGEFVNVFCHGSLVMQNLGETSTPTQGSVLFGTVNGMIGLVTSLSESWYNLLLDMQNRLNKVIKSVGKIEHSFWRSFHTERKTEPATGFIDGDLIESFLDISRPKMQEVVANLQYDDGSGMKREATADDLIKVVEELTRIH
Chain of CDK12–cyclin K (Q9NYV4 713-1052): as the sequence (Q9NYV4 713-1052 K965R) above, with R253K counted along it
Chain of CDK12–cyclin K (O75909 1-267 partner limits assumed): as the sequence (O75909 1-267 partner) above

Structure (SMILES): Cn1cc(-n2cnc3c(NCc4ccc(-c5ccccn5)cc4)nc(N4CCOCC4)nc32)cn1 [DS21]
- TR-FRET signal at compound concentration 4.68 nM (CDK12–cyclin K and DDB1; compound concentration 4.68 nM, raw replicate titration data): 0.1432 and 0.1661
- TR-FRET signal at compound concentration 21.6 nM (CDK12–cyclin K and DDB1; compound concentration 21.6 nM, raw replicate titration data): 0.2041 and 0.2174
- TR-FRET signal at compound concentration 36 nM (CDK12–cyclin K and DDB1; compound concentration 36 nM, raw replicate titration data): 0.3026 and 0.3362
- TR-FRET signal at compound concentration 79.2001 nM (CDK12–cyclin K and DDB1; compound concentration 79.2001 nM, raw replicate titration data): 0.4985 and 0.5183
- TR-FRET signal at compound concentration 158.4 nM (CDK12–cyclin K and DDB1; compound concentration 158.4 nM, raw replicate titration data): 0.7975 and 0.8115
- TR-FRET signal at compound concentration 309.6 nM (CDK12–cyclin K and DDB1; compound concentration 309.6 nM, raw replicate titration data): 1.104 and 1.124
- TR-FRET signal at compound concentration 626.401 nM (CDK12–cyclin K and DDB1; compound concentration 626.401 nM, raw replicate titration data): 1.537 and 1.587
- TR-FRET signal at compound concentration 1252.8 nM (CDK12–cyclin K and DDB1; compound concentration 1252.8 nM, raw replicate titration data): 1.789 and 1.917
- TR-FRET signal at compound concentration 2448 nM (CDK12–cyclin K and DDB1; compound concentration 2448 nM, raw replicate titration data): 1.994 and 2.074
- TR-FRET signal at compound concentration 9936.01 nM (CDK12–cyclin K and DDB1; compound concentration 9936.01 nM, raw replicate titration data): 2.1 and 2.149
- TR-FRET signal at compound concentration 20016 nM (CDK12–cyclin K and DDB1; compound concentration 20016 nM, raw replicate titration data): 2.044 and 2.1355
- DDB1–CDK12 complex formation, result in words (CDK12–cyclin K and DDB1; in vitro TR-FRET): poorer glues
- EC50 (CDK12–cyclin K and DDB1; sheet MOESM7, read-out: log TR-FRET EC50 (converted)): 299 nM
- EC50 (CDK12–cyclin K and DDB1; source data sheet correlations, read-out: TR-FRET EC50): 299 nM
- EC50 (HEK293T cells; Supplementary Fig. 5, HEK293T, CellTiter Glo, 72h, pre-treatment with 100 nM MLN4924, read-out: Viability EC50, with MLN4924): 4860 nM
- EC50 (HEK293T cells; Supplementary Table 2, HEK293T viability, 72 h, compound alone, read-out: Cellular assays EC50): 4940 nM
- Toxicity rescue (HEK293T cells; Supplementary Table 2, MLN4924-mediated cytotoxicity rescue, 10 µM used where n.d.): 102%
- Lanthascreen signal, sheet CDK2 (CDK2–cyclin A; Compound 0.038147 nM): 0.01393 and 0.01328
- Lanthascreen signal, sheet CDK2 (CDK2–cyclin A; Compound 0.152588 nM): 0.01386 and 0.01382
- Lanthascreen signal, sheet CDK2 (CDK2–cyclin A; Compound 0.610352 nM): 0.01425 and 0.01382
- Lanthascreen signal, sheet CDK2 (CDK2–cyclin A; Compound 9.76563 nM): 0.01432 and 0.01375
- Lanthascreen signal, sheet CDK2 (CDK2–cyclin A; Compound 39.0625 nM): 0.01417 and 0.01371
- Lanthascreen signal, sheet CDK2 (CDK2–cyclin A; Compound 156.25 nM): 0.01414 and 0.0141
- Lanthascreen signal, sheet CDK2 (CDK2–cyclin A; Compound 625 nM): 0.01356 and 0.01358
- Lanthascreen signal, sheet CDK2 (CDK2–cyclin A; Compound 2500 nM): 0.0127 and 0.009084
- Lanthascreen signal, sheet CDK2 (CDK2–cyclin A; Compound 10000 nM): 0.01132 and 0.011
- IC50 (CDK2–cyclin A; Lanthascreen, average, Extended Data Fig. 8, read-out: CDK2 IC50): > 10000 nM
- IC50 (CDK2–cyclin A; Supplementary Table 2, read-out: Lanthascreen IC50 [nM] CDK2): > 10000 nM
- IC50 (CDK9–cyclin T; Supplementary Table 2, read-out: Lanthascreen IC50 [nM] CDK9): 953 nM
- Lanthascreen TR-FRET signal (raw ratio), sheet CDK9 (CDK9–cyclin T; compound 0.038147 nM): 0.01926 and 0.02033
- Lanthascreen TR-FRET signal (raw ratio), sheet CDK9 (CDK9–cyclin T; compound 0.152588 nM): 0.01912 and 0.02064
- Lanthascreen TR-FRET signal (raw ratio), sheet CDK9 (CDK9–cyclin T; compound 0.610352 nM): 0.01926 and 0.02032
- Lanthascreen TR-FRET signal (raw ratio), sheet CDK9 (CDK9–cyclin T; compound 9.76563 nM): 0.01956 and 0.02095
- Lanthascreen TR-FRET signal (raw ratio), sheet CDK9 (CDK9–cyclin T; compound 39.0625 nM): 0.01859 and 0.0203
- Lanthascreen TR-FRET signal (raw ratio), sheet CDK9 (CDK9–cyclin T; compound 156.25 nM): 0.01696 and 0.01861
- Lanthascreen TR-FRET signal (raw ratio), sheet CDK9 (CDK9–cyclin T; compound 625 nM): 0.01333 and 0.0154
- Lanthascreen TR-FRET signal (raw ratio), sheet CDK9 (CDK9–cyclin T; compound 2500 nM): 0.009112 and 0.01043
- Lanthascreen TR-FRET signal (raw ratio), sheet CDK9 (CDK9–cyclin T; compound 10000 nM): 0.007018 and 0.007122
- DC50 [1]: 3120 nM
- IC50 (CDK12–cyclin K; Supplementary Table 2, read-out: Lanthascreen IC50 [nM] CDK12): 2860 nM
- Lanthascreen raw signal, sheet CDK12 (CDK12–cyclin K; compound 0.038147 nM): 0.01384 and 0.01435
- Lanthascreen raw signal, sheet CDK12 (CDK12–cyclin K; compound 0.152588 nM): 0.01397 and 0.0142
- Lanthascreen raw signal, sheet CDK12 (CDK12–cyclin K; compound 0.610352 nM): 0.015 and 0.01469
- Lanthascreen raw signal, sheet CDK12 (CDK12–cyclin K; compound 9.76563 nM): 0.01433 and 0.01471
- Lanthascreen raw signal, sheet CDK12 (CDK12–cyclin K; compound 39.0625 nM): 0.01481 and 0.01445
- Lanthascreen raw signal, sheet CDK12 (CDK12–cyclin K; compound 156.25 nM): 0.01408 and 0.01362
- Lanthascreen raw signal, sheet CDK12 (CDK12–cyclin K; compound 625 nM): 0.01314 and 0.0125
- Lanthascreen raw signal, sheet CDK12 (CDK12–cyclin K; compound 2500 nM): 0.01076 and 0.01056
- Lanthascreen raw signal, sheet CDK12 (CDK12–cyclin K; compound 10000 nM): 0.008221 and 0.008078
